Data taken from patent US20170312260A1 (LAUNX BIOMEDICAL CO., LTD., priority 2014, published 2017).

System: cancers cell lines
Experiment: Inhibition test on all kinds of cancer cell lines (overall statement)
Assay type: cell-based
Conditions: several / various cancer cell lines, Table 18, FIG. 1
Procedure: The cell numbers were counted and reseed as 2×10^6 in cell culture plate/flask. Then, the culture medium were added to a volume of 10 ml, and the cells were cultured for 2-3 days. Then, the cells were suspended for loading into 96-well plates. The number of cells was 3000 and the volume of the culture medium was 100 μl each well.
Removing the original culture medium from 96-well plate. Then add 100 μl of commercially drug at a concentration of 10 μM per well. After 72 hours, add the diluted WST-1 reagent to the well with 100 μl/well, and the diluted WST-1 reagent was acquired from the dilution of 9:1 medium and WST-1 stock reagent. Finally, the total volume of each well was 200 μl/well. Culture the 96-well plate at 37° C. for 30 to 90 minutes. Detecting and calculate the survival rate of each cancer cells with an ELISA reader at OD450 nm.
As a result in the experiments of the present invention.

Fc1ccc([C@@H]2CCNC[C@H]2COc2ccc3c(c2)OCO3)cc1 [Paroxetine]
inhibitory effect on cancer cell lines (in words): significant inhibitory effect
